Entries after “also recorded” stand apart in the source; their conditions may differ. Values belong to the compound of their own block, whether it stands above or below them.
Experiments:
[1] = Stability in an aqueous base: precipitation and discoloration; format: physicochemical; design: key: -: No precipitation; +: Slight precipitation; ++: Some precipitation; +++: Severe precipitation; settings: 3 g in 100 ml water
Method: Each 3 g of compounds of Preparation Ex. 3 and Ex. 6 and L-ascorbic acid 2-phosphate magnesium was dissolved in 100 ml of distilled water, and then maintained in a thermostat of 50° C. for 30 minutes.
Colorless or pale-yellow
+++ Severe precipitation

[2] = Stability of AsA-APPA in pH 7 buffer at 50° C. (residual ratio by UV absorbance); format: physicochemical
Method: L-Ascorbic acid and AsA-APPA produced in Preparation Ex. 2 were dissolved in buffer solutions of pH 7 to concentrations of 50 μM, respectively, and then maintained in a thermostat of 50° C. At constant intervals, UV absorbances were measured at 259 nm for AsA-APPA and at 266 nm for L-ascorbic acid, to evaluate the stabilities of the test samples as residual ratio(%).

fibroblast = experiment: Proliferation of fibroblast (MTT method); format: cell-based; settings: as low as, DMEM
Method: The skin obtained from new epidermal tissue was treated with Type 1 collagenase to remove epidermis. The obtained fibroblast was cultured on Dulbecco's Modified Eagle's Media(DMEM).
Amount of fibroblast was measured by way of MTT method.

skin of healthy females [3] = experiment: Human Patch Test; format: in vivo
Method: Test was carried out for thirty(30) of healthy females aging 20~30 years according to CTFA Guideline(The Cosmetic, Toiletry and Fragrance Association. Inc. Washington, D.C., 20023, 1991).
The back of the subjected was washed with 70% of ethanol and dried, and then, applied with a finn chamber containing 20 μl of patch base incorporating 10% of AsA-APPA of Preparation Ex. 2. The finn chamber was fixed to the tested site using a micropore tape. 24 hours later, the tape and the chamber were removed, and the tested site was marked with marking pen. After 24 hours or 48 hours, skin responses of the tested sites were observed and skin irritation were evaluated according to ICDRG(International Contact Dermatitis Research Group)'s criterion.
*Average Response = Grade of the sample/4(Maximum grade) × 30(Total

[4] = tested on: skin of New Zealand White male rabbits; experiment: Primary Skin Irritation Test; format: in vivo; settings: rabbit
Method: Test was carried out for twelve(12) of New Zealand White male rabbits whose backs were depilated before 24 hours. And, 0.1 ml of AsA-APPA of Preparation Ex. 2 was diluted with physiological saline to give 50% of test sample.
The test sample was applied to two sites (2.5 cm×2.5 cm) of the right back (amount of AsA-APPA per site: 0.5 ml). As a control, two sites (2.5 cm×2.5 cm) of the left back were treated with 1.0 ml of physiological saline. Each tested site was covered with a gauze, which was fixed using an non-irritative tape. 24 Hours later, the tested sites were washed with physiological saline.

skin of healthy females [5] = experiment: Repeat Insult Human Patch Test; format: in vivo
Method: Test was carried out for twenty(20) of healthy females aging 20~30 years according to CTFA Guideline(The Cosmetic, Toiletry and Fragrance Association. Inc. Washington, D.C., 20023, 1991).
The back of the subjected was washed with 70% of propanol and dried, and then, applied with a finn chamber containing 20 μl of patch base incorporating 10% of AsA-APPA of Preparation Ex. 2. Applications were repeated every 24 hours for 3 weeks (Induction Period). After about 2 weeks, Challenge Insult Patch was carried out. At this step, the sites tested during the induction period and new sites were applied with the patches for 48 hours. […] And, skin irritation was evaluated according to ICDRG(International Contact Dermatitis Research Group)'s criterion.

[6] = tested on: eye of New Zealand White rabbits; experiment: Eye Irritation Test; format: in vivo; settings: rabbit
Method: Test was carried out using the nine(9) of New Zealand White rabbits.
0.1 ml of AsA-APPA of Preparation Ex. 2 was diluted with physiological saline to give 10% of test sample. This test sample was dropped onto the right eye of each rabbit, taking the left eye as a control. After 20~30 seconds, only three(3) rabbits of them were washed sufficiently with the sterilized saline.

skin of Guinea pigs = experiment: Skin Sensitization Test (Guinea Pig Maximization test); format: in vivo, Guinea pigs (Hartley Albino Guinea Pig)
Method: Test was carried out for six(6)(three males and three females) of Guinea pigs(Hartley Albino Guinea Pig) weighing 300~360 g according to Maggnusson and Kligman's procedure (Guinea Pig Maximization test).
In order to determine the concentrations of the test samples to be applied in Induction test for light irritation and Challenge test for no irritation, for three(3) of Guinea pigs for each test, primary irritations were taken with 6.25%, 12.5% and 25.0% of the test samples, respectively. For each animal, each site (2.5×2.5 cm) of right and left of the back was treated with three concentrations of the test samples in an amount of 0.5 ml/site of AsA-APPA, and then covered with a gauze, which was fixed using an non-irritative tape, for 24 hours. Next, 0.1 ml of 25% of AsA-APPA was intradermally injected to each of two pigs(one male and one female) using 26-gauge 1/2-inched needle. 7 Days later, the same sites were depilated and pretreated with 10% of SLS in petrolatum. Then, each tested site was treated with 0.5 ml/site of AsA-APPA, and then covered with a gauze, which was fixed using an non-irritative tape, for 48 hours. 2 Weeks later, the left back of the depilated pig was treated with the test sample and the right back was treated with physiological saline. 24 Hours later, the tested sites were washed with physiological saline.
As a control, test was carried out using physiological saline, instead of the test sample, in the same procedure.

[7] = Acute Dermal Toxicity Test; format: in vivo, ICR mice; settings: mouse, in vivo, topical or ocular, acute dermal, ICR mice, Litchfield-Wilcoxon's method; read-out: LD50 (lethal dose)
Method: (§1) 4 ml/kg of AsA-APPA of Preparation Ex. 2 was diluted with physiological saline to give 50% of test sample. This test sample was percutaneously administrated into the ten(10) of ICR mice(five males and five females) weighing 20~33 g (administrated amount of AsA-APPA: 2 g/kgweight). As a control, 4 ml/kg of physiological saline was percutaneously administrated into the ten(10) of ICR mice(five males and five females) weighing 20~33 g (administrated amount of AsA-APPA: 0 g/kgweight).
(§2) Before about 24 hours, the back of each mouce was depilated in a size of 1.5×1.5 cm^2. Then, each depilated site was covered with a gauze of 1×1 cm^2 applied with one of the test and control samples, and fixed using an non-irritative tape, for 24 hours.
(§3) At that day, general appearance was observed every hour for 6 hours. And, from the next day to 14 days, every day, were observed general appearance(clinical symptoms), toxic symptoms, death and the like. Further, change of weights was measured at 1, 3, 7 and 14 days.
(§4) Any of the mice dead during observation period were immediately subjected to autopsy, and the survival mice were subjected to autopsy after observation period.

ICR mice [8] = experiment: Acute Dermal Toxicity Test; format: in vivo
Method: as §1, §2, §3, §4

Acute Oral Toxicity Test = format: in vivo, ICR mice; settings: mouse, in vivo, po, acute oral, ICR mice, Litchfield-Wilcoxon's method; read-out: LD50 (lethal dose)
Method: as §1, with “10 ml/kg” for “4 ml/kg”, “was orally” for “was percutaneously”, “AsA-APPA: 5” for “AsA-APPA: 2”, “control, 10” for “control, 4”
(§5) At that day, general appearance was observed every hour for 6 hours. And, from the next day to 14 days, every day, were observed general appearance(clinical symptoms), toxic symptoms, death and the like. Further, change of weight was measured at 1, 3, 7 and 14 days.
as §4

ICR mice [9] = experiment: Acute Oral Toxicity Test; format: in vivo
Method: as §1, with “10 ml/kg” for “4 ml/kg”, “was orally” for “was percutaneously”, “AsA-APPA: 5” for “AsA-APPA: 2”, “control, 10” for “control, 4”
as §5, §4

[10] = 10% AsA-APPA, text and Table 5, unit not given

Compound: NCCCOP(=O)(O)OC1=C(O)[C@@H]([C@@H](O)CO)OC1=O [Prep. Ex. 3]
- Precipitation ([1]; day 1): -
- Precipitation ([1]; day 3): -
- Precipitation ([1]; day 5): -
- Precipitation ([1]; day 7): -
- Precipitation ([1]; day 9): -
- Precipitation ([1]; day 11): -
- Precipitation ([1]; day 13): -
- Precipitation ([1]; day 15): -
- Precipitation ([1]; day 30): -

- time to decomposition ([2]; about, neutral aqueous solution, 50° C.): ≤ 1 h
Compound: O=C1O[C@H]([C@@H](O)CO)C(O)=C1O [L-ascorbic acid]

- Precipitation ([1]; day 1): -
- Precipitation ([1]; day 3): +
- Precipitation ([1]; day 5): +
- Precipitation ([1]; day 7): ++
- Precipitation ([1]; day 9): ++
- Precipitation ([1]; day 11): ++
- Precipitation ([1]; day 13): +++
- Precipitation ([1]; day 15): +++
- Precipitation ([1]; day 30): +++
Compound: O=C1O[C@H]([C@@H](O)CO)C(O)=C1OP(=O)([O-])[O-].[Mg+2] [compound 1, L-ascorbic acid 2-phosphate magnesium, reference compound]

Compound: NCCCOP(=O)(O)OC1=C(O)[C@@H]([C@@H](O)CO)OC1=O [AsA-APPA, 2-(3-aminopropanephosphoric acid)-L-ascorbate]
- concentration showing effective fibroblast proliferation (fibroblast): 10 mM
- Evaluation of human patch test (skin of healthy females [3]; 10% AsA-APPA): primary irritative response, except for 1% of erythema, was hardly observed; also recorded: No irritative
- Average response (skin of healthy females [3]; [10]): 0.42
- Response (skin of healthy females [3]; 24 hr., N = 30, 10% AsA-APPA, erythema): 1%
- irritation after 48 hours (skin of healthy females [3]; 48 hours, 10% AsA-APPA): all the irritation fade away
- Response (skin of healthy females [3]; 48 hr., N = 30, 10% AsA-APPA): 0%
- Average response (skin of healthy females [3]; N = 30, 10% AsA-APPA, Table 3): 0.42%
- Evaluation of primary skin irritation [4]: non-irritative or very low-irritative
- skin abnormality such as erythema and edema ([4]; 24 or 72 hours after removing the patches): no skin abnormality such as erythema and edema was observed
- Draize's PII (Primary Irritation Index) ([4]; due to erythema): 0.13
- stability in neutral aqueous solution ([2]; pH 7, 50° C.): very stable
- remaining at 0.5 h, 50 µM ([2]; ph 7 buffer, 30 min., pH 7, 50 μM, 50° C.): 100%
- remaining at 1 h, 50 µM ([2]; ph 7 buffer, 1 hr., pH 7, 50 μM, 50° C.): 100%
- remaining at 3 h, 50 µM ([2]; ph 7 buffer, 3 hr., pH 7, 50 μM, 50° C.): 100%
- remaining at 6 h, 50 µM ([2]; ph 7 buffer, 6 hr., pH 7, 50 μM, 50° C.): 100%
- remaining at 24 h, 50 µM ([2]; ph 7 buffer, 24 hr., pH 7, 50 μM, 50° C.): 99.1%
- remaining at 144 h, 50 µM ([2]; ph 7 buffer, 6 days, pH 7, 50 μM, 50° C.): 95.5%
- remaining at 240 h, 50 µM ([2]; ph 7 buffer, 10 days, pH 7, 50 μM, 50° C.): 93.5%
- Evaluation of repeat insult human patch test (skin of healthy females [5]; 10% AsA-APPA): No irritative
- repeat irritation or sensitive irritation (skin of healthy females [5]; 10% AsA-APPA): no repeat irritation or no sensitive irritation was observed
- Average response, challenge period (skin of healthy females [5]; 10% AsA-APPA, unit not given): 0
- Average response, induction period (skin of healthy females [5]; [10]): 0.14
- Average response, challenge period (skin of healthy females [5]; n = 20, 10% AsA-APPA, Table 4): 0%
- Average response, induction period (skin of healthy females [5]; n = 20, 10% AsA-APPA, Table 4): 0.14%
- Induction Period response (skin of healthy females [5]; week 1, 10% AsA-APPA): 1
- Evaluation of eye irritation [6]: No irritative
- eye irritation on cornea, iris and conjunctiva ([6]; after 24 hours or 48 hours, 10% test sample): no eye irritation on cornea, iris and conjunctiva was observed
- Irritation rate of eye mucos (M.O.I) ([6]; washed and non-washed cases): 0
- Evaluation of skin sensitization (skin of Guinea pigs; Guinea pig): very safe to the skin
- skin abnormality such as erythema and edema (skin of Guinea pigs; Guinea pig, 24, 48 and 72 hours after removing the patches): no skin abnormality such as erythema and edema was observed
- Kligman's grade (skin of Guinea pigs; Guinea pig, Kligman's criterion): 1
- LD50 at 336 h [7]: 2000 mg/kg
- Evaluation (ICR mice [8]; Acute dermal toxicity test): Innoxious
- LD50 (lethal dose) (ICR mice [8]; acute dermal, ICR mice, Litchfield-Wilcoxon's method, 20160 min): > 2000 mg/kg
- autopsy findings (ICR mice [8]; percutaneous, 2 g/kg): no abnormal symptom was observed
- weight changes in comparison to the control (ICR mice [8]; percutaneous, 2 g/kg, 1, 3, 7 and 14 days): no significant difference
- death (ICR mice [8]; percutaneous, 2 g/kg, 14 days): no dead mice
- LD50 at 336 h (Acute Oral Toxicity Test): 5000 mg/kg
- Evaluation (ICR mice [9]; Acute oral toxicity test): Innoxious
- LD50 (lethal dose) (ICR mice [9]; acute oral, ICR mice, Litchfield-Wilcoxon's method, 20160 min): > 5000 mg/kg
- autopsy findings (ICR mice [9]; oral, 5 g/kg): no abnormal symptom was observed
- weight changes in comparison to the control (ICR mice [9]; oral, 5 g/kg, 1, 3, 7 and 14 days): no significant difference
- death (ICR mice [9]; oral, 5 g/kg, 14 days): no dead mice

— patent US5916915A, “Water-in-stable L-ascorbic acid derivative and a method for preparation thereof, and a skin-whitening cosmetic composition containing the same” (priority 1997, dated 1999)
